Some test systems named below: NCI-H226; TK-10; SNB-78; HCC 2998; DMS-114; SW-620; DLD-1; ACHN; XF498; RPMI-8226; HOP-92; LXFL 529; SR; DMS-273; KM-20L2; MCF7; NCI/ADR-RES; 786-0; M19-MEL; HOP-18.
What all share (assay): growth of human tumour cells (NCI), 48 h

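Interpolation was linear, between the two tested concentrations surrounding the appropriate level; five concentrations were tested over 48 hours in 96-well plates. Here, GI50 denotes the concentration required for 50% inhibition of growth.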 Active and inactive are the calls of the source. Cut-off read from the data, not from the text of the source: active = GI50 up to about 1.1 µM and inactive = higher.

Regarding `O=C(Nc1ccc(F)cc1)C(=O)C(C(=O)c1ccccc1F)C1OC(=O)c2ccccc21` (configuration not stated), the GI50 was 21.4 µM (inactive) in the assay on NCI-H226; > 100 µM (inactive) with TK-10; 44.6 µM (inactive) in the assay on SNB-78; 38.5 µM (inactive) in the assay on HCC 2998; 45.5 µM (inactive) in the assay on DMS-114; 58.6 µM (inactive) in the assay on SW-620. The GI50 in the assay on DLD-1 is 76.4 µM (inactive); in the assay with ACHN, > 100 µM (inactive); in the assay on XF498, 50.8 µM (inactive); with RPMI-8226, 23.4 µM (inactive); in the assay on HOP-92 it was > 100 µM (inactive); in the assay on LXFL 529, 34.8 µM (inactive). For the same compound, the GI50 in the assay with SR was 19.8 µM (inactive); in the assay on DMS-273, 43.3 µM (inactive); with KM-20L2, 86.3 µM (inactive).
With `COc1cc(S(=O)(=O)Nc2ccc(-c3csc(N4C(=O)C(C)SC4c4cccc(Oc5ccccc5)c4)n3)cc2)ccc1Cl` (configuration not stated), the GI50 with NCI-H226 is 27.1 µM (inactive); in the assay on SW-620 it was 59 µM (inactive); in the assay on ACHN, 57.8 µM (inactive); in the assay on RPMI-8226 it was 42.1 µM (inactive); with HOP-92 it was 32.7 µM (inactive); with SR, 26.3 µM (inactive). Moreover, the GI50 was 24.1 µM (inactive) with MCF7 and > 100 µM (inactive) in the assay on NCI/ADR-RES.
Consider `CCOC(=O)c1cccc(NC(=O)CBr)c1`, for which the GI50 was 0.76 µM (active) in the assay on NCI-H226; 1.67 µM (inactive) with TK-10; 2.3 µM (inactive) in the assay on HCC 2998; 0.361 µM (active) in the assay with SW-620; 1.56 µM (inactive) in the assay on ACHN; 1.07 µM (active) with RPMI-8226. Moreover, the GI50 was 1.93 µM (inactive) in the assay on HOP-92; 0.206 µM (active) in the assay on SR; 1.19 µM (inactive) in the assay with MCF7; 2.04 µM (inactive) in the assay on NCI/ADR-RES; 0.22 µM (active) in the assay on 786-0.
As for `CCOC(=O)C(Cc1c(-c2[nH]c3ccccc3c2CC(NC(=O)CNC(C)=O)C(=O)OCC)[nH]c2ccccc12)NC(=O)CNC(C)=O` (configuration not stated), the GI50 was > 100 µM (inactive) with TK-10; 23.1 µM (inactive) with HCC 2998; > 100 µM (inactive) with SW-620; > 100 µM (inactive) in the assay on RPMI-8226; 26.3 µM (inactive) with HOP-92; 40.4 µM (inactive) with SR.
With `N#C[C@@H](c1nc2ccccc2s1)c1ncccc1[N+](=O)[O-]`, the GI50 with NCI-H226 is 5.55 µM (inactive); in the assay on TK-10, 4.79 µM (inactive); with HCC 2998, 10.6 µM (inactive); in the assay with SW-620, > 10 µM (inactive); in the assay with ACHN, 6.07 µM (inactive); with RPMI-8226, 4.9 µM (inactive). Moreover, the GI50 was 1.32 µM (inactive) with HOP-92; 4.67 µM (inactive) in the assay on SR; 5.11 µM (inactive) with MCF7; 6.46 µM (inactive) with NCI/ADR-RES; 6.19 µM (inactive) with 786-0.
In the case of `Clc1ccc(N/N=C(\c2ccccc2)c2ccccn2)nc1`, the GI50 is 0.0891 µM (active) with NCI-H226; 3.81 µM (inactive) in the assay with HCC 2998; < 0.01 µM (active) in the assay on SW-620; < 0.01 µM (active) in the assay with ACHN; 0.147 µM (active) in the assay on RPMI-8226; 0.101 µM (active) in the assay on HOP-92. Besides, the GI50 in the assay with SR was 0.114 µM (active); in the assay on MCF7 it was < 0.01 µM (active); with NCI/ADR-RES, < 0.0165 µM (active); in the assay on 786-0, 0.0367 µM (active).
As for `CC(=O)N(C(=O)CC(=O)N1N=C(C)C(/N=N/c2cccc([N+](=O)[O-])c2)C1=O)c1ccc(Cl)cc1` (configuration not stated), the GI50 in the assay with TK-10, in the assay with HCC 2998, with SW-620, in the assay on ACHN, in the assay with RPMI-8226 and in the assay on HOP-92 was > 10 µM (inactive) throughout. Besides, the GI50 in the assay on SR, in the assay on MCF7, with NCI/ADR-RES and in the assay with 786-0 was > 10 µM (inactive) throughout.
For the compound `CCOC(=O)c1nc2ccc(OC)cc2c2c1Cc1ccccc1-2`, the GI50 was > 100 µM (inactive) in the assay on NCI-H226; > 100 µM (inactive) with TK-10; > 100 µM (inactive) in the assay with M19-MEL; > 100 µM (inactive) in the assay with SNB-78; 87.1 µM (inactive) in the assay on HCC 2998; 23.9 µM (inactive) in the assay with DMS-114. The GI50 in the assay with SW-620, with DLD-1, with ACHN, in the assay with RPMI-8226, with LXFL 529 and with SR was > 100 µM (inactive) each time. Also, the GI50 in the assay with DMS-273 and in the assay with KM-20L2 was > 100 µM (inactive) throughout.
With `COc1cc(/C=C(\C)[N+](=O)[O-])cc(OC)c1`, the GI50 with NCI-H226 was > 52.5 µM (inactive); in the assay on TK-10, 11.8 µM (inactive); with HCC 2998 it was 25.1 µM (inactive); in the assay on SW-620, 4.49 µM (inactive); with ACHN, 16.4 µM (inactive); with RPMI-8226 it was 3.12 µM (inactive). The GI50 was 13.5 µM (inactive) in the assay with HOP-92; 3.01 µM (inactive) in the assay with SR; 6.73 µM (inactive) with MCF7; 20.2 µM (inactive) in the assay on NCI/ADR-RES; 4.59 µM (inactive) in the assay with 786-0.
Take `CN(C(=O)C12C3C4C1C1C2C3C41C(=O)C(C)(C)C)C(C)(C)C` (configuration not stated): the GI50 with TK-10, in the assay on M19-MEL, in the assay on SNB-78, with HCC 2998, in the assay on DMS-114 and with SW-620 was > 100 µM (inactive) each time. In addition, the GI50 with DLD-1, in the assay on ACHN, in the assay on XF498, with RPMI-8226, in the assay on LXFL 529 and in the assay on DMS-273 was > 100 µM (inactive) throughout. Moreover, the GI50 with KM-20L2 and in the assay on 786-0 was > 100 µM (inactive) throughout.
With `COC(=O)/C=C\n1nc(Br)c(=O)[nH]c1=O`, the GI50 in the assay with TK-10, in the assay on HCC 2998, with SW-620, in the assay on ACHN, in the assay on RPMI-8226 and in the assay on HOP-92 was > 100 µM (inactive) each time. Also, the GI50 in the assay with SR, with MCF7 and with NCI/ADR-RES was > 100 µM (inactive) throughout.
As to `O=S(O)c1cc(Cl)cc(Cl)c1O`, the GI50 in the assay with TK-10 was > 100 µM (inactive); with M19-MEL it was > 100 µM (inactive); with SNB-78 it was > 100 µM (inactive); with HCC 2998, > 100 µM (inactive); in the assay with DMS-114 it was 80.9 µM (inactive); in the assay on DLD-1, > 100 µM (inactive). Moreover, the GI50 with ACHN, in the assay on XF498 and in the assay with LXFL 529 was > 100 µM (inactive) each time.
Consider `c1ccc(Nc2nnc(CCCCCCCCc3nnc(Nc4ccccc4)o3)o2)cc1`, for which the GI50 in the assay with NCI-H226 is > 100 µM (inactive); in the assay with TK-10, > 100 µM (inactive); in the assay on HCC 2998 it was 51.6 µM (inactive); in the assay with SW-620, > 100 µM (inactive); in the assay on ACHN it was > 100 µM (inactive); in the assay with MCF7, > 100 µM (inactive). Besides, the GI50 with NCI/ADR-RES and in the assay on 786-0 was > 100 µM (inactive) in each case.
Consider `O=c1[nH]cnc2sc(=S)c3c(c12)CCC3`, for which the GI50 was 20.8 µM (inactive) with NCI-H226; 25.2 µM (inactive) with TK-10; 21.6 µM (inactive) in the assay on SW-620; 17.3 µM (inactive) in the assay on ACHN; 18 µM (inactive) in the assay on RPMI-8226; 23.8 µM (inactive) in the assay with HOP-92. The GI50 is 12.1 µM (inactive) in the assay on SR, > 100 µM (inactive) in the assay on MCF7, 36.9 µM (inactive) in the assay on NCI/ADR-RES and 15.5 µM (inactive) with 786-0.
With `NC(CCOCCP(=O)(O)CCOCCC(N)C(=O)O)C(=O)O` (configuration not stated), the GI50 with TK-10, with HCC 2998, in the assay on SW-620, in the assay on ACHN, in the assay with RPMI-8226 and in the assay with HOP-92 was > 100 µM (inactive) in each case. The GI50 with SR, with MCF7 and in the assay with NCI/ADR-RES was > 100 µM (inactive) in each case.
Turning to `O=S(O)c1cc(Cl)cc(Cl)c1OCc1ccccc1`, the GI50 in the assay with TK-10, in the assay on M19-MEL, with SNB-78, with HCC 2998, in the assay on DMS-114 and in the assay with DLD-1 was > 100 µM (inactive) throughout. Further, the GI50 in the assay on ACHN, in the assay with XF498, with LXFL 529 and with SR was > 100 µM (inactive) throughout.
On to `COCC1N=C(c2cc(OC)c(OC)c(OC)c2-c2cc3c(cc2[C@@H](C)O)OCO3)O[C@H]1c1ccccc1` (some centres not stated), for which the GI50 with NCI-H226 was > 77.1 µM (inactive); in the assay on HOP-18 it was > 86.5 µM (inactive); in the assay with M19-MEL it was > 90.8 µM (inactive); in the assay with SNB-78 it was > 45.2 µM (inactive); in the assay with HCC 2998, > 100 µM (inactive); with SW-620, > 100 µM (inactive). Also, the GI50 was > 89.7 µM (inactive) with DLD-1; 97.5 µM (inactive) in the assay with RPMI-8226; 34.4 µM (inactive) with HOP-92; > 61.1 µM (inactive) with MCF7; 40.2 µM (inactive) in the assay on NCI/ADR-RES; > 71.9 µM (inactive) in the assay on DMS-273. In addition, the GI50 in the assay with KM-20L2 was 98.2 µM (inactive).
On to `CC([C@H]1CCC2C3CCC4CC5(CC[C@]4(C)C3CC[C@@]21C)c1ccccc1C(=O)N5C)N(C)C` (some centres not stated), for which the GI50 in the assay with TK-10 is 26.1 µM (inactive); with HOP-18 it was > 100 µM (inactive); with M19-MEL, 17 µM (inactive); in the assay with HCC 2998 it was > 100 µM (inactive); with DMS-114, 32.4 µM (inactive); in the assay with SW-620 it was 40.6 µM (inactive). Further, the GI50 in the assay with DLD-1 is 36.5 µM (inactive); in the assay on ACHN, 44.9 µM (inactive); with RPMI-8226, 20.7 µM (inactive); in the assay on HOP-92, 50.5 µM (inactive); with LXFL 529, 32.2 µM (inactive); in the assay on SR, 18.1 µM (inactive). Besides, the values for the GI50 in the assay with DMS-273 and with 786-0 were 12.9 µM (inactive) and 13.9 µM (inactive), respectively.

The values above are taken from ChEMBL document CHEMBL1201862, “PubChem BioAssay data set” (2004).
